Source: patent US20230293539A1, “MLL1-WDR5 PROTEIN-PROTEIN INTERACTION INHIBITOR COMPOUNDS AND USES THEREOF” (HUYABIO International, LLC, priority 2022, published 2023)
Where two headings read alike, the source gives them in different places.

How the values were obtained:
[1] = target: ATX (Homo sapiens, UniProt Q13822); test: Selectivity panel (Table 3); type: biochemical
[2] = target: T1, BRD4-BD2 (Homo sapiens, UniProt O60885); test: Selectivity panel (Table 3); type: binding
T1 construct: BRD4-BD2

[3] = target: CD73 (Homo sapiens, UniProt P21589); test: Selectivity panel (Table 3); type: biochemical
CD73, sequence (P21589 27-549, species assumed): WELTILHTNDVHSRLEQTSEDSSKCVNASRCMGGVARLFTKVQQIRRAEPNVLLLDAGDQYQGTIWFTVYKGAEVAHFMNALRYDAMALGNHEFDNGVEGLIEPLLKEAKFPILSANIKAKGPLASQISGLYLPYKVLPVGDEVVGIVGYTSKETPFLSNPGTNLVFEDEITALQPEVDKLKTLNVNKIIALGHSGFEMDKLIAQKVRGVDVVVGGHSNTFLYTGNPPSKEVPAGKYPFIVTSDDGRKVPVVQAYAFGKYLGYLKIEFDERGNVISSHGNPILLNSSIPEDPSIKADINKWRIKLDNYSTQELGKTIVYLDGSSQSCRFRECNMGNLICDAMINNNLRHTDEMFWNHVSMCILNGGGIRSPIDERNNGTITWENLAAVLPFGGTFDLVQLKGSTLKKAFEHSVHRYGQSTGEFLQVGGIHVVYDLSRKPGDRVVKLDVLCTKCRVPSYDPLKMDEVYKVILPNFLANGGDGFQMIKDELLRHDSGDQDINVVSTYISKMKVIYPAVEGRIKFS

[4] = target: HDAC1 (Homo sapiens, UniProt Q13547); test: Selectivity panel (Table 3); type: biochemical
HDAC1, sequence (Q13547 whole entry, species assumed): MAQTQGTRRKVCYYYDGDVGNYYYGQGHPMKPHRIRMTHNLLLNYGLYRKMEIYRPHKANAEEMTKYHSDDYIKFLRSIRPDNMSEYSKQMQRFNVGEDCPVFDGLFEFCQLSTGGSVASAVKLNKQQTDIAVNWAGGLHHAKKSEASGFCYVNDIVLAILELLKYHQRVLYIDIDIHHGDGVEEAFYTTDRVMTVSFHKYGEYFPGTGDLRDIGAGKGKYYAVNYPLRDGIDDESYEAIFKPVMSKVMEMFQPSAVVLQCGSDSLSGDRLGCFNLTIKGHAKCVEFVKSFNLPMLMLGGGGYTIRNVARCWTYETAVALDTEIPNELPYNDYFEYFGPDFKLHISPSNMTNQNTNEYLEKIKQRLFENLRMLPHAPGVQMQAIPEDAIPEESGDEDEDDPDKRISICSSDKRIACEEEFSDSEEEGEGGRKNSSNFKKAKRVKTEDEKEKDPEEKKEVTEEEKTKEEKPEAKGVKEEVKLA

[5] = target: KRAS G12D (Homo sapiens, UniProt P01116, G12D); test: Selectivity panel (Table 3); type: binding
KRAS G12D, sequence (P01116 1-188 isoform P01116-2 G12D): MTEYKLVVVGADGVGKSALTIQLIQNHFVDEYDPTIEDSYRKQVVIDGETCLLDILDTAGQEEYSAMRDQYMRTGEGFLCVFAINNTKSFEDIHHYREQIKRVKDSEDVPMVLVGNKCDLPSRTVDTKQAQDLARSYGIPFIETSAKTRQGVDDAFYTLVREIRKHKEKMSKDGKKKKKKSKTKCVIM

[6] = target: KRAS WT (Homo sapiens, UniProt P01116); test: Selectivity panel (Table 3); type: binding
KRAS WT, sequence (P01116 1-188 isoform P01116-2): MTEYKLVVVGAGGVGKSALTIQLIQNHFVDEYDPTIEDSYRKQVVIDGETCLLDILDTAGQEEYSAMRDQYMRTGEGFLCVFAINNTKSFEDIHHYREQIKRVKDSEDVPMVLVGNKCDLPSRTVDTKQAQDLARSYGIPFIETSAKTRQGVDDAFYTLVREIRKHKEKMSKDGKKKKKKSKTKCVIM

[7] = target: PD-1/PD-L1 (Homo sapiens, UniProt Q9NZQ7); test: Selectivity panel (Table 3); type: binding
PD-1/PD-L1, sequence (Q9NZQ7 19-238 limits assumed): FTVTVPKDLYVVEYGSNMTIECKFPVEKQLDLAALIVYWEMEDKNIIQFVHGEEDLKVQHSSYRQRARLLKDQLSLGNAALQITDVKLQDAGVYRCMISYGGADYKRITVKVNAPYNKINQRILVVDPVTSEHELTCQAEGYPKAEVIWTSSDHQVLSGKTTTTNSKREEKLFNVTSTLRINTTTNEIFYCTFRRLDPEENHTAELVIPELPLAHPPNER

[8] = target: TEAD1 (Homo sapiens, UniProt P28347); test: Selectivity panel (Table 3); type: binding
TEAD1, sequence (P28347 whole entry, species assumed): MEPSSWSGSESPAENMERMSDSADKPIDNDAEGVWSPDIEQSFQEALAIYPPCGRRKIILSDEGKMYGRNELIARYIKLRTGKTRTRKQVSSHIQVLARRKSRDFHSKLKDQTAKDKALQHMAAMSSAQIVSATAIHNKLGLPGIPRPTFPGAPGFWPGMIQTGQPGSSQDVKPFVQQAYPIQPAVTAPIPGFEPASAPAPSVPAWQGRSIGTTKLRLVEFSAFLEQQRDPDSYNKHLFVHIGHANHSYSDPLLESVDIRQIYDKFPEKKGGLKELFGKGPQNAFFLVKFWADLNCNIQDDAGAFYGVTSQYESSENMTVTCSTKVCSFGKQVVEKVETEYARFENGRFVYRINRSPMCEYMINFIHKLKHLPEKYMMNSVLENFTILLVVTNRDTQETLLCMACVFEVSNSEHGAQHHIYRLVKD

[9] = target: WDR5 (Homo sapiens, UniProt P61964); test: Selectivity panel (Table 3); type: binding
[10] = target: WIP 1 (Homo sapiens, UniProt O15297); test: Selectivity panel (Table 3); type: biochemical
WIP 1, sequence (O15297 whole entry, species assumed): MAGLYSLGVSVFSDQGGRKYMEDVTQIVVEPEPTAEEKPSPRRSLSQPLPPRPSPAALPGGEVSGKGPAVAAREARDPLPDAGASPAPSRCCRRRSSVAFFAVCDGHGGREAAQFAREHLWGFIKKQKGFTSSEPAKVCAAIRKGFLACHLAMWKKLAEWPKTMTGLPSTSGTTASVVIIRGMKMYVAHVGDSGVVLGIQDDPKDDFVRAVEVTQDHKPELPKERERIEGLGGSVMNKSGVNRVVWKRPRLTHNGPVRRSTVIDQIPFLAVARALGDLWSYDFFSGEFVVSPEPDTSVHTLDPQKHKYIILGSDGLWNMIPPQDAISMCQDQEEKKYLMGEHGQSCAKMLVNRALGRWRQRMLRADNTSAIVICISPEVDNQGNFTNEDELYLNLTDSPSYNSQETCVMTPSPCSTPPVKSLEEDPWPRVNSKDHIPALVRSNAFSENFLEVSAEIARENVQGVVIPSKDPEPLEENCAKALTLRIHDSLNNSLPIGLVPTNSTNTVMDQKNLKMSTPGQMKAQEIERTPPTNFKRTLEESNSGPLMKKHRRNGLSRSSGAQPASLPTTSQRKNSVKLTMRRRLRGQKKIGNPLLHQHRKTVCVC

[11] = Liver S9 stability assay; type: in vitro ADME, human
Protocol: Liver S9 stability assay: Test compounds (1 μM) and positive control were incubated with 5 mM GSH and liver S9 (1 mg protein/ml) from multiple species (including human, monkey, dog, rat and mouse) at 37° C. at 0, 10, 30, and 60 minutes in duplicate. After adding the stop solution, 100 μL of supernatant were analyzed by LC-MS/MS. The % remaining of test compound, T1/2 (min), and CLint (μL/min/mg) were calculated and were reported.

[12] = Metabolite ID in Liver S9; type: in vitro ADME; settings: HBI-2375 and metabolites in Dog liver S9
[13] = PK profile of HBI-2375 in plasma, brain and CSF in SD rats; type: in vivo; settings: for AUC(0-t) / Cmax / MRT last / Tmax / Kp: rat; for Kp: po, 40 mg/kg, read-out: AUClast Ratio Tissue/Plasma
Protocol: EXAMPLE 3: PK profile of HBI-2375 (compound of Formula (IIIb) (HYBI-084) in plasma, brain, and cerebrospinal fluid (CSF) in SD rats: This study was conducted in accordance with the Study Protocol and Pharmaron (Ningbo) TSP's Standard Operating Procedures (SOPs) following all regulatory protocols. This study was conducted under non-GLP environment.
The maximal concentrations of HBI-2375 in CSF for males and females were at 1 hr post-dose. The maximal concentrations of HBI-2375 in brain were at 15 min post-dose for males and at 1 hr post-dose for females. The mean values of AUClast for HBI-2375 from high to low were: brain>plasma>CSF for males, and plasma>brain>CSF for females.
Following a single oral gavage administration of HBI-2375 at 40 mg/kg in SD rats, concentrations of HBI-2375 in plasma, brain, and CSF were determined by LC-MS/MS methods. […] The maximal concentrations of HBI-2375 in CSF for males and females were at 1 hr post-dose. The maximal concentrations of HBI-2375 in brain were at 15 min post-dose for males and at 1 hr post-dose for females.

[14] = Predicted brain concentrations based on mouse/rat PK/BBB data; settings: Equivalent Human 6.5 mg/kg
Protocol: The ability of a compound of Formula (IIIb) (HBI_084 (HBI-2375)) to cross the BBB is determined in a population comprising one or more human subjects by orally (PO) or intravenously (IV) administering a pharmaceutical composition comprising a compound of Formula (IIIb) to the individual members of the population of human subjects at one or more doses described in Example 5. Blood samples and CSF are drawn from the subjects and compound concentrations are determined in the blood plasma and CSF of the subjects as described in Example 4. Pharmacokinetic parameters are determined by means analogous to those described in Examples 1-4. Doses for HBI-2375 may be based on a target concentration in subjects' brain predicted using the following table.

[15] = Sprague-Dawley, SD rats, single PO 40 mg/kg, CSF, female
[16] = Sprague-Dawley, SD rats, single PO 40 mg/kg, CSF, male
[17] = Sprague-Dawley, SD rats, single PO 40 mg/kg, brain, female
[18] = Sprague-Dawley, SD rats, single PO 40 mg/kg, brain, male
[19] = Sprague-Dawley, SD rats, single PO 40 mg/kg, plasma, female
[20] = Sprague-Dawley, SD rats, single PO 40 mg/kg, plasma, male
[21] = both sexes, SD rats, single PO 40 mg/kg, brain, mean of male and female
[22] = both sexes, SD rats, single PO 40 mg/kg, plasma, mean of male and female

Cc1c(F)c(N)cc(C(=O)Nc2cc(-n3cc(C(=O)N4CCN(C)CC4)nn3)c(F)cc2N2C[C@@H](C)N(C)[C@@H](C)C2)c1Cl [HYBI-084, 5-amino-2-chloro-4-fluoro-N-(4-fluoro-5-(4-(4-methylpiperazine-1-carbonyl)-1H-1,2,3-triazol-1-yl)-2-((3S,5R)-3,4,5-trimethylpiperazin-1-yl)phenyl)-3-methylbenzamide] showed an IC50 [1] greater than 1000 nM, an IC50 [2] greater than 1000 nM and an IC50 [3] greater than 1000 nM. For the same molecule, the IC50 [4] was greater than 1000 nM, the IC50 [5] was greater than 1000 nM and the IC50 [6] was greater than 1000 nM. For the same molecule, the IC50 [7] was greater than 1000 nM, the IC50 [8] was greater than 1000 nM and the IC50 [9] was 0.683 nM. For the same molecule, the IC50 [10] was greater than 1000 nM, the half-life at 1 μM ([11]; Human liver S9) was greater than 2.42 h and the microsomal CLint at 1 μM ([11]; Human liver S9) was less than 4.8 µL/min/mg. The “% Remaining after 60 min incubation” value ([11]; Human liver S9, 1 μM, 5 mM GSH, 37° C.) was 85.1%, the “Relative Abundance (UV Peak Area % Total)” value [12] was 70.71% and the “AUClast Ratio Female/Male” value ([13]; SD rats, 40 mg/kg PO, CSF) was 6.66. The “C24hr/Cmax Ratio (%)” value ([13]; SD rats, 40 mg/kg PO, CSF, female) was 11.6%, the “AUClast Ratio Tissue/Plasma” value ([13]; SD rats, 40 mg/kg PO, CSF/plasma, male, listed as HBI-2375, 40 mg/kg) was 0.0111 and the “AUClast Ratio Female/Male” value ([13]; SD rats, 40 mg/kg PO, brain) was 1.54. The “C24hr/Cmax Ratio (%)” value ([13]; SD rats, 40 mg/kg PO, brain, female) was 3.24%, the “C24hr/Cmax Ratio (%)” value ([13]; SD rats, 40 mg/kg PO, brain, male) was 4.18% and the “AUClast from high to low” value ([13]; SD rats, 40 mg/kg PO, females) was “plasma>brain>CSF”. For the same molecule, the “AUClast from high to low” value ([13]; SD rats, 40 mg/kg PO, males) was “brain>plasma>CSF”, the “AUClast Ratio Female/Male” value ([13]; SD rats, 40 mg/kg PO, plasma) was 2.18 and the “C24hr/Cmax Ratio (%)” value ([13]; SD rats, 40 mg/kg PO, plasma, female) was 1.17%. The “C24hr/Cmax Ratio (%)” value ([13]; SD rats, 40 mg/kg PO, plasma, male) was 0.697%, the distribution ([13]; SD rats, single PO 40 mg/kg) was “distributed to CSF and brain” and the “duration of exposure in CSF and brain” value ([13]; SD rats, single PO 40 mg/kg) was 24 h. The in-life observations ([13]; SD rats, single PO 40 mg/kg) was “no abnormalities were observed”, the AUClast ([13]; SD rats, single PO 40 mg/kg, brain, female) was 3394 ng·h/g and the AUClast ([13]; SD rats, single PO 40 mg/kg, brain, male) was 2199 ng·h/g. The “time of maximal concentration” value ([13]; SD rats, single PO 40 mg/kg, brain, males) was 15 min, the AUClast ([13]; SD rats, single PO 40 mg/kg, brain, mean of male and female) was 2796 ng·h/g and the concentration at 24 h ([13]; SD, brain, Single PO Rat 40 mg/kg, read-out: Mean Brain Concentration, Cmin = 24 h) was 22.1 ng/g. It also gave an AUC(0-t) [13, 15] of 124 ng·h/mL, a Cmax [13, 15] of 24 ng/mL and an MRT last [13, 15] of 8.41 h. For the same molecule, the Tmax ([13]; Sprague-Dawley, SD rats, single PO 40 mg/kg, CSF, female, read-out: Tmax) was 1 h, the AUC(0-t) [13, 16] was 18.6 ng·h/mL and the Cmax [13, 16] was 7.48 ng/mL. For the same molecule, the MRT last [13, 16] was 2 h, the Tmax ([13]; Sprague-Dawley, SD rats, single PO 40 mg/kg, CSF, male, read-out: Tmax) was 1 h and the Cmax [13, 17] was 833 ng/g. For the same molecule, the MRT last [13, 17] was 5.81 h, the Tmax ([13]; Sprague-Dawley, SD rats, single PO 40 mg/kg, brain, female, read-out: Tmax) was 1 h and the Cmax [13, 18] was 413 ng/g. The MRT last [13, 18] was 7 h, the AUC(0-t) [13, 19] was 3660 ng·h/mL and the Cmax [13, 19] was 934 ng/mL. It also gave an MRT last [13, 19] of 5.11 h, an AUC(0-t) [13, 20] of 1680 ng·h/mL and a Cmax [13, 20] of 544 ng/mL. For the same molecule, the MRT last [13, 20] was 4.5 h, the Tmax ([13]; both sexes, Sprague-Dawley, SD rats, single PO 40 mg/kg, plasma, males and females, read-out: Tmax (time of maximal concentration) (converted)) was 0.25 h and the Cmax [13, 21] was 623 ng/g. The MRT last [13, 21] was 6.4 h, the AUC(0-t) [13, 22] was 2670 ng·h/mL and the Cmax [13, 22] was 739 ng/mL. For the same molecule, the MRT last [13, 22] was 4.8 h, the Kp ([13]; female, Sprague-Dawley, CSF/plasma, SD rats, 40 mg/kg PO, CSF/plasma, female) was 0.0338 and the Kp ([13]; female, Sprague-Dawley, brain/plasma, SD rats, 40 mg/kg PO, brain/plasma, female) was 0.928. The AUC(0-t) ([13]; female, Sprague-Dawley, SD rats, single PO 40 mg/kg, brain, females) was 3390 ng·h/mL, the “crossing of the blood-brain barrier” value ([13]; general statement) was “can cross the blood-brain barrier” and the Kp ([13]; male, Sprague-Dawley, CSF/plasma, SD rats, 40 mg/kg PO, CSF/plasma, male) was 0.011. For the same molecule, the Kp ([13]; male, Sprague-Dawley, brain/plasma, SD rats, 40 mg/kg PO, brain/plasma, male) was 1.31, the AUC(0-t) ([13]; male, Sprague-Dawley, SD rats, single PO 40 mg/kg, brain, males) was 2200 ng·h/mL and the Tmax ([13]; SD rats, single PO 40 mg/kg, brain, male, read-out: Tmax) was 0.25 h. The Tmax ([13]; SD rats, single PO 40 mg/kg, plasma, female, read-out: Tmax) was 0.25 h, the Tmax ([13]; SD rats, single PO 40 mg/kg, plasma, male, read-out: Tmax) was 0.25 h and the “Predicted Mean Brain Concentration, Cmin = 24 h” value ([14]; estimated from repeated PO mouse) was 11.1 ng/g. The “Predicted Mean Brain Concentration, Cmin = 24 h” value ([14]; estimated from single PO mouse) was 4.5 ng/g and the “Predicted Mean Brain Concentration, Cmin = 24 h” value ([14]; estimated from single PO rat) was 3.6 ng/g.
